Results taken from paper PMC8151276, “An Integrated Approach toward NanoBRET Tracers for Analysis of GPCR Ligand Engagement” (Molecules, 2021).

Legend:
Format in all cases: binding
[1] = biological target: T1, CCR1 (Homo sapiens, UniProt P32246); experiment: NanoBRET screen HiBiT-CCR1 in HEK293
T1 construct: purchased Promega (in-house HiBiT-GPCR construct library, NanoBRET)
T1 sequence (P32246 1-355): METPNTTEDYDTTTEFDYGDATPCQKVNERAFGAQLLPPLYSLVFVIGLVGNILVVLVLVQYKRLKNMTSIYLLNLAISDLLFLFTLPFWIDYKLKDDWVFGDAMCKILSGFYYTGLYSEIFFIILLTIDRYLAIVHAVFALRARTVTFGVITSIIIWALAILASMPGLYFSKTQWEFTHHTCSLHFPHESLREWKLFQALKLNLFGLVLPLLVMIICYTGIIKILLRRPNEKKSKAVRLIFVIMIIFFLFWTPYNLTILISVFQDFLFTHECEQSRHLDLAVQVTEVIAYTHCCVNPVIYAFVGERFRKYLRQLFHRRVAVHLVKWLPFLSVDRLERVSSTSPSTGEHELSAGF
Experimental: (§1) Each tracer candidate was screened across the entire library of HiBiT-GPCR constructs using NanoBRET as the detection modality. As depicted in Figure 4A, the specificity of interactions was evaluated through decrease in BRET due to competitive displacement of a bound tracer by excess parental compound. Each tracer was analyzed for binding to each HiBiT-GPCR fusion in the absence and in the presence of competing parental compound. Briefly, HEK293 cells were transfected with HiBiT-GPCR constructs diluted into promoterless DNA to reduce expression and maximize translocation to the cell surface. Each tracer candidate was then screened at concentrations of 1 μM and 0.1 μM across cells expressing these fusions. Cells were treated for 1.5 h with tracer either alone or in the presence of 20 μM competing parental compound (i.e., control). BRET was measured upon addition of purified LgBiT and subsequent complementation with HiBiT genetically fused to a GPCR. The specificity of interactions was assessed through a decrease in BRET signal due to competitive displacement of the bound tracer. To further gauge the robustness of these interactions, the fold response over the control (i.e., BRETtracer/BRETcontrol) was calculated. We chose a 1.5-fold response, which translates to ≥7-fold signal over noise as the minimal threshold required to score an interaction as positive. […]. Below we highlight the screening results obtained for our exemplary fluorescent tracers based on Clozapine, Amitriptyline and AZD1283.
(§2) HiBiT-GPCR DNA constructs were diluted in 10 mM Tris pH 8 to a final concentration of 0.01 μg/μL, arrayed in 96-well plates and stored at −20 °C. For transfection, HEK293 cells were suspended in Opti-MEM (without phenol red) supplemented with 2% fetal bovine serum (Seradigm) and 100 units/mL penicillin–streptomycin (Gibco) at a final concentration of 220,000 cells/mL and dispensed into white 96-well plates at 90 μL/well. Subsequent transfections and screens were carried using an Agilent Bravo Automated Liquid Handling Platform. First, the 96-well HiBiT DNA arrays were diluted 25-fold in Opti-MEM (without serum or phenol red) to a final concentration of 0.0004 μg/μL and 20 μL of the diluted DNAs were transferred into new 96-well plates. Next, promoterless carrier DNA (1 μg/μL) was diluted 25-fold (0.04 μg/μL) and then dispensed into the diluted arrays at 20 μL/well. Following brief mixing, Viafect transfection reagent (Promega) diluted 16-fold into Opti-MEM was dispensed into the plates at 40 μL/well. After mixing by pipetting, plates were incubated for 10 min on the pipetting station deck. The DNA-transfection reagent complexes were then added to plates containing cells. To facilitate the screen, 10 μL of DNA-transfection reagent complexes were added in duplicates to the top 4 and bottom 4 rows, resulting in two identical 48-well arrays per plate. Plates with transfected cells were incubated for 18–20 h at 37 °C/5% CO2. A screen of each tracer across the entire library using two different concentrations requires duplicate plates of transfected cells. Depending on the number of tracers being screened, transfections can be scaled up using the same ratios. The next day, for each tracer, four 20× screening solutions in tracer dilution buffer (Promega) were prepared: two duplicates at final concentration of 20 μM and two duplicates at a final concentration of 2 μM. A competing unmodified compound was added to one of each duplicate at a final concentration of 400 μM. The four resulting solutions were diluted 4-fold in Opti-MEM without serum or phenol red to generate 5× solutions (5 µM and 0.5 µM tracer +/− 100 μM competing compound). To screen the library, a BioTek MultiFlo FX liquid dispenser was used to dispense 22.5 µL of tracer solution to the top 4 rows and 22.5 µL tracer + competing compound solution to the 4 bottom rows. Plates were briefly mixed on an orbital shaker and incubated for 1.5 h at room temperature. […]

[2] = biological target: T2, P2RY1 (Homo sapiens, UniProt P47900); experiment: NanoBRET screen HiBiT-P2RY1 in HEK293
T2 construct: purchased Promega (in-house HiBiT-GPCR construct library, NanoBRET)
T2 sequence (P47900 whole entry): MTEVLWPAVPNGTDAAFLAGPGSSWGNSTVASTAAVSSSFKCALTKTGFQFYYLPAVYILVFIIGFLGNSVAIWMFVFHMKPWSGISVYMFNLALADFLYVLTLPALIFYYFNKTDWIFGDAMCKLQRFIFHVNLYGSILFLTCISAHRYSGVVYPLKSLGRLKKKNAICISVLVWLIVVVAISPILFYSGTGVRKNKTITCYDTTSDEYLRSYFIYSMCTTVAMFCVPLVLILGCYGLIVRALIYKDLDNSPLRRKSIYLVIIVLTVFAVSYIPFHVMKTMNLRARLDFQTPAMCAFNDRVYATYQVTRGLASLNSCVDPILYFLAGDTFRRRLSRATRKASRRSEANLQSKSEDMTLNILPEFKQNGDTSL
Experimental: as §1, §2

[3] = biological target: T3, BRS3 (Homo sapiens, UniProt P32247); experiment: NanoBRET screen HiBiT-BRS3 in HEK293
T3 construct: purchased Promega (in-house HiBiT-GPCR construct library, NanoBRET)
T3 sequence (P32247 1-399): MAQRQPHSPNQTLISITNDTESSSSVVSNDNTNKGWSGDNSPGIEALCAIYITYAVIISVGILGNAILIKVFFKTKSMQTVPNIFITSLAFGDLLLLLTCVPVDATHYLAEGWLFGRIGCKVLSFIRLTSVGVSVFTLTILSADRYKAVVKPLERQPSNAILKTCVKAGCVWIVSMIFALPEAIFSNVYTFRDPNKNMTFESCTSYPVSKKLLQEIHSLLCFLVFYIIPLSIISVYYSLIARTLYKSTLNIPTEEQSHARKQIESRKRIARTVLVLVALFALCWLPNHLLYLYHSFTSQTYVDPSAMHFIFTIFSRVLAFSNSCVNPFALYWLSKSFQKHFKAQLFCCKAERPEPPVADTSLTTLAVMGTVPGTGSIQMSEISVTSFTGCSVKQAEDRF
Experimental: as §1, §2

[4] = biological target: T4, GRM4 (Homo sapiens, UniProt Q14833); experiment: NanoBRET screen HiBiT-GRM4 in HEK293
T4 construct: purchased Promega (in-house HiBiT-GPCR construct library, NanoBRET)
T4 sequence (Q14833 33-912): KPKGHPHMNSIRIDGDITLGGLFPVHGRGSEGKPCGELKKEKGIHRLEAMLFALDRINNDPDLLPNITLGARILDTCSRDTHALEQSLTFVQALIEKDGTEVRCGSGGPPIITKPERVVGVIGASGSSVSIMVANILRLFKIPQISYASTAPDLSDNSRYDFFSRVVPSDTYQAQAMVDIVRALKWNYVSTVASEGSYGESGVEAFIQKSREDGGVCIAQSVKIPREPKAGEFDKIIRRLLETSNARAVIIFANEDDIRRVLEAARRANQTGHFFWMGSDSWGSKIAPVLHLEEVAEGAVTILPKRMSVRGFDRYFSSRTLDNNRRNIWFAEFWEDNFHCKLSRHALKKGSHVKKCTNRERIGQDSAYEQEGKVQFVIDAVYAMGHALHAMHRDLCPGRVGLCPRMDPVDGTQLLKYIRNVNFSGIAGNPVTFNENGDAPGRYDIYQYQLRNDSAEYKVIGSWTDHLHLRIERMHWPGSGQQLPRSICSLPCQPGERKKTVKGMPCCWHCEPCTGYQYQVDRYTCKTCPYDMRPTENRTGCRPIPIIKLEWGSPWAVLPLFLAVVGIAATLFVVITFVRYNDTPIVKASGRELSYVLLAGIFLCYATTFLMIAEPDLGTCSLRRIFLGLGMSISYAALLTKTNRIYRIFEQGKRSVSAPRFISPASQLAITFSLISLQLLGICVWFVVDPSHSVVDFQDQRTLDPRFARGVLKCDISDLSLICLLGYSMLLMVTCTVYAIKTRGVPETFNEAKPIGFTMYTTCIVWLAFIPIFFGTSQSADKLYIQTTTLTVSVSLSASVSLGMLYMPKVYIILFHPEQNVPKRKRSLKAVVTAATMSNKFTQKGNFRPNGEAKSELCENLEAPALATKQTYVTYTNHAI
Experimental: as §1, §2

Structure (SMILES) | NanoBRET Fold Response ([1]; CCR1, 0.1μM tracer) | NanoBRET Fold Response ([1]; CCR1, 1μM tracer) | NanoBRET Fold Response ([2]; P2RY1, 0.1μM tracer) | NanoBRET Fold Response ([2]; P2RY1, 1μM tracer) | NanoBRET Fold Response ([3]; BRS3, 0.1μM tracer) | NanoBRET Fold Response ([3]; BRS3, 1μM tracer) | NanoBRET Fold Response ([4]; GRM4, 0.1μM tracer) | NanoBRET Fold Response ([4]; GRM4, 1μM tracer) | NanoBRET Fold Response ([1]; CCR1, tracer 0.1μM) | NanoBRET Fold Response ([1]; CCR1, tracer 1μM) | NanoBRET Fold Response ([2]; P2RY1, tracer 0.1μM) | NanoBRET Fold Response ([3]; BRS3, tracer 0.1μM) | NanoBRET Fold Response ([3]; BRS3, tracer 1μM) | NanoBRET Fold Response ([4]; GRM4, tracer 0.1μM) | NanoBRET Fold Response ([4]; GRM4, tracer 1μM) | also measured
COc1ccc2[nH]c(-c3ccc(CNC(=O)CCOCCOCCOCCOCCNC(=O)CCc4ccc5n4[B-](F)(F)[N+]4=C(c6ccc[nH]6)C=CC4=C5)cc3)c(CCNC(C)=O)c2n1 [AzomelatoninICO9-2-NB590] | – | – | – | – | – | – | – | – | – | – | – | – | – | – | – | NanoBRET Fold Response ([1]; 0.1μM tracer): 1.12; NanoBRET Fold Response ([1]; 1μM tracer): 1.21; NanoBRET Fold Response ([2]; 0.1μM tracer): 0.99; NanoBRET Fold Response ([2]; 1μM tracer): 0.99; NanoBRET Fold Response ([3]; 0.1μM tracer): 0.86; NanoBRET Fold Response ([3]; 1μM tracer): 0.91; NanoBRET Fold Response ([4]; 0.1μM tracer): 0.97; NanoBRET Fold Response ([4]; 1μM tracer): 0.85
O=C(CCOCCOCCOCCOCCNC(=O)CCc1ccc2n1[B-](F)(F)[N+]1=C(c3ccc[nH]3)C=CC1=C2)NCCCN1CCN(C2=Nc3cc(Cl)ccc3Nc3ccccc32)CC1 [Clozapine-a-2-NB590] | 1.03 | 0.94 | 1.01 | 0.94 | 1.09 | 1.15 | 1.02 | 0.99 | – | – | – | – | – | – | – | –
CN1CCN(C2=Nc3cc(Cl)ccc3Nc3ccc(CNC(=O)CCOCCOCCOCCOCCNC(=O)CCc4ccc5n4[B-](F)(F)[N+]4=C(c6ccc[nH]6)C=CC4=C5)cc32)CC1 [Clozapine-b-2-NB590] | 1.04 | 0.98 | 1.03 | 1.01 | 1.01 | 1.02 | 1.05 | 1.03 | – | – | – | – | – | – | – | –
CN1CCN(C2=Nc3cc(Cl)ccc3N(CC(=O)NCCOCCOCCOCCOCCNC(=O)CCc3ccc4n3[B-](F)(F)[N+]3=C(c5ccc[nH]5)C=CC3=C4)c3ccccc32)CC1 [Clozapine-c-2-NB590] | 1.05 | 0.98 | 0.97 | 1.03 | 0.93 | 1.07 | 0.94 | 1.14 | – | – | – | – | – | – | – | –
O=C(CCOCCOCCOCCOCCNC(=O)CCc1ccc2n1[B-](F)(F)[N+]1=C(c3ccc[nH]3)C=CC1=C2)NCCCN1CCN(C2=Nc3ccccc3Oc3ccc(Cl)cc32)CC1 [Loxapine-a-2-NB590] | – | – | – | – | – | – | – | – | 1.00 | 0.99 | 1.01 | 0.99 | 1.20 | 1.04 | 0.99 | NanoBRET Fold Response ([2]; P2RY1, tracer 1μM): 0.97
COc1ccccc1N1CCN(CCCCN2C(=O)c3ccc(CNC(=O)CCOCCOCCOCCOCCNC(=O)CCc4ccc5n4[B-](F)(F)[N+]4=C(c6ccc[nH]6)C=CC4=C5)cc3C2=O)CC1 [NAN-190-2-NB590] | – | – | – | – | – | – | – | – | 1.01 | 1.04 | 0.97 | 1.04 | 0.97 | 0.98 | 0.97 | –
